# Literature values as cited in publication PMC3780409 (Methods in molecular biology (Clifton, N.J.), 2011).
# Entries after “also recorded” stand apart in the source; their conditions may differ.
# Tests used:
# [1] = test system: PAR1; settings: sepsis, SIRS, DIC, mice; cited from earlier work
# [2] = test system: endothelial cells; settings: cited from earlier work
# [3] = test system: PAR1; settings: cited from earlier work
# [4] = test system: PAR2, PAR4, CXCR1, CXCR2, S1P1, S1P3, or CCR5 receptors; settings: recombinantly transfected HEK293 cells; cited from earlier work
# [5] = test system: PAR1; settings: cited from earlier work; remark: listed apart in the source
# [6] = test system: thromboxane, ADP, collagen, or GPIb/IX/V receptors; settings: specificity; cited from earlier work
# [7] = test system: PAR1; settings: cited from earlier work; remark: listed apart in the source
# [8] = test system: PAR1; settings: human platelets, 5 μM for 1 min; cited from earlier work
# [9] = test system: PAR1; settings: cited from earlier work; remark: listed apart in the source
substance,measurement,setting,value
N-pal-RCLSSSAVANRS-NH2 [Pepducin P1pal-12],Outcome,[1],"Reduced organ damage and inflammatory mediators, inhibited neutrophil migration"
same,"responses to IL8, SDF-1α, S1P, thromboxane, MCP-1, RANTES",[2],no effect
same,relaxation induced by TFLLRN or P1pal-19,[3]; precontracted rat aortic rings,decreased relaxation
same,Outcome (thrombin-induced relaxation),[3]; rat aortic rings,Decreased thrombin-induced relaxation in rat aortic rings
same,"migration to ligands for PAR2, PAR4, CXCR1, CXCR2, S1P1, S1P3, or CCR5 receptors",[4],no effect
same,Outcome (thrombin generation),[5],Delayed thrombin generation
same,"aggregation of platelets induced by agonists for the thromboxane, ADP, collagen, or GPIb/IX/V receptors",[6],lack of an effect
same,p38 MAPK activation,"[7]; human platelets, collagen",blocked p38 MAPK activation
same,collagen-induced platelet aggregation,[7]; human platelets,Inhibition of collagen-induced platelet aggregation
same,propagation of platelet–platelet thrombi,"[7]; human whole blood, arterial flow conditions",significantly reduced
same,aggregation in response to 3 nM thrombin,[8],complete blockade
same,decrease in SFLLRN (PAR1 agonist)-induced aggregation,[8],75–95%
same,thrombin plus collagen-induced calcium signal,[9]; platelets,significantly decreased; also recorded: Decreased collagen-induced calcium signal
same,prothrombinase activity,[9]; thrombin plus collagen,decreased the prothrombinase activity to levels induced by collagen alone
